Experimental data reported in US9546139B2, “Pyridine carboxylic acid based compound used as a P2X1 and P2X3 receptor antagonist, a production method for the same and a composition comprising the same” (GWANGJU INSTITUTE OF SCIENCE AND TECHNOLOGY, priority 2010, dated 2017).
Like-named read-outs stand apart in the source and are kept apart here.

How the values were obtained:
Assay type in all cases: cell-based
mouse P2X1 receptor = molecular target: T1, mouse P2X1 receptor (Mus musculus, UniProt P51576); experiment: Two-electrode voltage clamp, ATP-induced ion current in Xenopus oocytes expressing mouse P2X1; conditions: for % inhibition mP2X1 / inhibition at 10 µM: Table 2, 10 μM compound; for % inhibition mP2X1 / inhibition at 10 µM / inhibition at 0.1 µM: ion current induced by 2 μM ATP, mean ± SEM, n = 4; for inhibition at 10 µM / inhibition at 0.1 µM: read-out: % inhibition mP2X1; for Hill coefficient: 2 μM ATP (FIG. 1B, FIG. 2A); for inhibition at 0.1 µM: Table 1, 100 nM compound
T1 construct: EST clones containing full-length cDNAs of mouse P2X1 (clone ID: 4189541) and human P2X7 receptor (clone ID: 5286944); host or cells: Xenopus oocytes (cRNA injected)
T1 sequence (P51576 1-399): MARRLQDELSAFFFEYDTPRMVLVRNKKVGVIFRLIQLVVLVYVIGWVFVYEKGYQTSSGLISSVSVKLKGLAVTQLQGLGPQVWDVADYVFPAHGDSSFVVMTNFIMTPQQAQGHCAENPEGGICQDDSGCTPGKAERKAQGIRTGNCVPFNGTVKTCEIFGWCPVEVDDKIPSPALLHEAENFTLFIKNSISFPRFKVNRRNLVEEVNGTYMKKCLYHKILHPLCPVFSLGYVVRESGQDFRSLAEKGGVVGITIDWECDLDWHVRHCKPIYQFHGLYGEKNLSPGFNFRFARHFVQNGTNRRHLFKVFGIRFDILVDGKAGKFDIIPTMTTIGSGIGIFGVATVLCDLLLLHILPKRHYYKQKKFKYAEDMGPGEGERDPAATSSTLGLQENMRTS
Experimental: 1-1. Antagonistic Activity at Recombinant Mouse P2X1 and Human P2X3 Receptors
(§1) Xenopus oocytes were harvested and prepared with method as previously described in publications. Defolliculated oocytes were injected cytosolically with mouse P2X1 and human P2X3 receptor cRNA ([…], 1 μg/mL), respectively, incubated for 24 hrs at 18° C. in Barth's solution and kept for up to 12 days at 4° C. until used in electrophysiological experiments. ATP-activated membrane currents (Vh=−70 mV) were recorded from cRNA-injected oocytes using the twin-electrode voltage-clamp technique (Axoclamp 2B amplifier). Voltage recording (1-2 MΩ tip resistance) and current-recording microelectrodes (5 MΩ tip resistance) were filled with 3.0 M KCl. Oocytes were held in an electrophysiological chamber and superfused with Ringer's solution (5 mL/min, at 18° C.) containing (mM) NaCl, 110; KCl, 2.5; HEPES, 5; BaCl2, 1.8, adjusted to pH 7.5. ATP was superfused over the oocytes for 60-120s then washed out for a period of 20 min. For inhibition curves, data were normalized to the current evoked by ATP, at pH 7.5. Test substances were added for 20 min prior to ATP exposure; all peptides were tested for reversibility of their effects. The concentration required to inhibit the ATP response by 50% (IC50) was taken from Hill plots constructed using the formula: log(I/Imax−1), where I is the current evoked by ATP in the presence of an antagonist. Data are presented as mean±SEM (n=4) for the data from different batches of oocytes.

human P2X3 receptor = molecular target: T2, human P2X3 receptor (Homo sapiens, UniProt P56373); experiment: Two-electrode voltage clamp, ATP-induced ion current in Xenopus oocytes expressing human P2X3; conditions: for inhibition at 10 µM: Table 2, 10 μM compound; for Hill coefficient: 2 μM ATP (FIG. 1C, FIG. 2B); for IC50: 2 μM ATP
T2 construct: expressed in transfected cells; host or cells: Xenopus oocytes (cRNA injected); cDNA from the Max-Planck Institute laboratory (Dr. W. Stuhmer and Dr. F. Soto)
T2 sequence (P56373 1-397): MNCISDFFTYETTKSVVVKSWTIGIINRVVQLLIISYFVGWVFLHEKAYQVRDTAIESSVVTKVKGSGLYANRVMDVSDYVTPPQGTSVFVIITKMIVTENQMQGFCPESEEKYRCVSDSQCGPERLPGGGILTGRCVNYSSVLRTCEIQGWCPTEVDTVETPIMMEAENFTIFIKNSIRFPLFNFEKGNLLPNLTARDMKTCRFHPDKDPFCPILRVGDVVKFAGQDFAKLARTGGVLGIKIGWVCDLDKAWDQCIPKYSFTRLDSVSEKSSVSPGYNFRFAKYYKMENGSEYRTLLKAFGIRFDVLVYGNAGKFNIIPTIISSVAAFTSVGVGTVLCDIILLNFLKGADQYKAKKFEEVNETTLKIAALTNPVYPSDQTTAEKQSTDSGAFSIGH
Experimental: Antagonistic Activity at Recombinant Mouse P2X1 and Human P2X3 Receptors
as §1

human P2X7 receptor = molecular target: T3, human P2X7 receptor (Homo sapiens, UniProt Q99572); experiment: Ethidium+ accumulation assay in human P2X7-expressing HEK293 cells; conditions: 10 μM compound, ethidium+ accumulation induced by 6 μM BzATP, n = 3
T3 construct: EST clones containing full-length cDNAs of mouse P2X1 (clone ID: 4189541) and human P2X7 receptor (clone ID: 5286944); host or cells: HEK293
T3 sequence (Q99572 1-595): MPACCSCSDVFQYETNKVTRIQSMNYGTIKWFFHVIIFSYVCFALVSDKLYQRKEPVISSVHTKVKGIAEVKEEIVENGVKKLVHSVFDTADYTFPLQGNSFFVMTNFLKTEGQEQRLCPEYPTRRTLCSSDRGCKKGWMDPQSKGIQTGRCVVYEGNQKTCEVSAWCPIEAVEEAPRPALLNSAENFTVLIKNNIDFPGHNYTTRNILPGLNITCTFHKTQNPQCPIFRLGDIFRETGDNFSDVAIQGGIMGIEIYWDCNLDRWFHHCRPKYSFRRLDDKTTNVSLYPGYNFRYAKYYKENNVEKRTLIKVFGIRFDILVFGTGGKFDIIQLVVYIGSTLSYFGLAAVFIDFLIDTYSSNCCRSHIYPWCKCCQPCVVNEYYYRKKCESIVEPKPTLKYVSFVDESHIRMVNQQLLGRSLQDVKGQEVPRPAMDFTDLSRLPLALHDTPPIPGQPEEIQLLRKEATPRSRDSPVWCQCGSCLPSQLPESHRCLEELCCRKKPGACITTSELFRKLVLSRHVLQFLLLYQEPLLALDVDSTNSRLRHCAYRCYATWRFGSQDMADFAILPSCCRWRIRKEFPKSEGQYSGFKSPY
Experimental: 1-2. Ethidium^+ Accumulation Assay at Human P2X7 Receptors
Human P2X7-expressing HEK293 cells were grown as monolayer culture at 37° C. in a humidified atmosphere of 5% CO2, DMEM supplemented with 10% fetal bovine serum. Cells were harvested with treatment of Trypsin/EDTA solution, collected by centrifugation (200 g for 5 min).
The cells were resuspended at 2.5×10^6 cells/mL in assay buffers, consisting of (in mM) HEPES 10, KCl 140, glucose 5, EDTA 1 (pH 7.4), and then ethidium bromide (100 μM) was added. Cell suspensions were added to 96 well plates containing the P2X7 receptor agonist, ATP or BzATP, at 2×10^5 cells/wells. Plates were incubated at 37° C. for 120 min and cellular accumulation of ethidium^+ was determined by measuring fluorescence with Bio-Tek instrument FL600 fluorescent plate reader (excitation wavelength of 530 nm and emission wavelength of 590 nm). When the effects of antagonists, such as PPADS, KN62, and test peptides were studied, antagonists were treated together with agonist without pre-incubation.

[1] = concentration-response curve, 2 μM ATP, mean of four observations, read-out: IC50 value
[2] = ion current induced by 2 μM ATP, mean ± SEM, n = 4, read-out: % inhibition hP2X3
[3] = concentration of 100 nM, receptor not stated in the sentence (follows FIG. 2B, human P2X3), read-out: % inhibition
[4] = concentration-response curve, mean of four observations, read-out: IC50 value
[5] = concentration-inhibitory curve, 2 μM ATP, read-out: IC50 value (FIG. 1B)
[6] = Table 1, 100 nM compound, ion current induced by 2 μM ATP, mean ± SEM, n = 4, read-out: % inhibition hP2X3
[7] = concentration-inhibitory curve, read-out: IC50 value (FIG. 1C)

Structure (SMILES)	% inhibition mP2X1 (mouse P2X1 receptor) [%]	inhibition at 10 µM (mouse P2X1 receptor) [%]	Hill coefficient (mouse P2X1 receptor; concentration-inhibitory curve)	IC50 (mouse P2X1 receptor; [1]) [nM]	inhibition at 10 µM (human P2X3 receptor; [2]) [%]	inhibition at 0.1 µM (human P2X3 receptor; [3]) [%]	Hill coefficient (human P2X3 receptor; concentration-inhibitory curve)	IC50 (human P2X3 receptor; [4]) [nM]	% inhibition hP2X7 (human P2X7 receptor)	inhibition at 0.1 µM (mouse P2X1 receptor) [%]	IC50 (mouse P2X1 receptor; [5]) [nM]	inhibition at 0.1 µM (human P2X3 receptor; [6]) [%]	IC50 (human P2X3 receptor; [7]) [nM]	inhibitory activity to the ATP-induced ion current (mouse P2X1 receptor; FIG. 1A, 2 μM ATP, two concentrations)
Cc1nc(CCc2ccc(C(=O)O)cc2)c(C(=O)O)c(C(=O)O)c1O [Compound 39, 2-[2-(4-Carboxy-phenyl)-ethyl]-5-hydroxy-6-methyl-pyridine-3,4-dicarboxylic acid]	82.7 ± 6.0	82	−1.00±0.09	186	68.9 ± 11.7	34	−0.58±0.27	339	inactive					
CC(=O)c1c(O)c(C)nc(CCc2ccccc2)c1C(=O)O [Compound 45, 4-acetyl-5-hydroxy-6-methyl-2-phenethylnicotinic acid]		47.9 ± 8.1			37.3 ± 10				inactive					
COc1ccc(CCc2nc(C)c(O)c(C=O)c2CCC(=O)O)cc1 [Compound 61, 3-(4-formyl-5-hydroxy-2-(4-methoxyphenethyl)-6-methylpyridin-3-yl)propanoic acid]		50.9 ± 6.1			70.5 ± 4.7				inactive					
COc1ccccc1/C=C/c1nc(C)c(O)c(C(C)=O)c1C(=O)O [Compound 49, (E)-4-acetyl-5-hydroxy-2-(2-methoxystyryl)-6-methylnicotinic acid]		11.4 ± 3.3			6.3 ± 2.3				inactive					
Cc1nc(Cc2cccc3ccccc23)c(C(=O)O)c(C(=O)O)c1O [Compound 50, 5-Hydroxy-6-methyl-2-(naphthalene-1-ylmethyl)pyridine-3,4-dicarboxylic acid]		48.3 ± 4.1			67.9 ± 5.2				inactive					
COc1ccc(CCc2nc(C)c(O)c(C(=O)O)c2C(=O)O)cc1 [Compound 37, 5-Hydroxy-2-[2-(4-methoxy-phenyl)ethyl]-6-methyl-pyridine-3,4-dicarboxylic acid]	77.0 ± 3.8	78			59.8 ± 4.6				inactive					
COc1ccc(CCc2nc(C)c(O)c(C(C)=O)c2C(=O)O)cc1 [Compound 46, 4-acetyl-5-hydroxy-2-(4-methoxyphenethyl)-6-methylnicotinic acid]		52 ± 7.1			42.2 ± 7.5				inactive					
Cc1nc(CCc2ccccc2)c(C(=O)O)c(C(=O)O)c1O [Compound 36, 5-Hydroxy-6-methyl-2-phenethyl-pyridine-3,4-dicarboxylic acid]	73.4 ± 9.7	77	−1.03±0.21	361	51 ± 9.8	38.3	−0.63±0.20	432	inactive					
COc1ccc(CCc2nc(C)c(O)c(C=O)c2C(=O)O)cc1 [Compound 67, 4-formyl-5-hydroxy-2-(4-methoxyphenethyl)-6-methylnicotinic acid]		52.8 ± 5.6			72.6 ± 4.3				inactive					
Cc1nc(N=Nc2ccc(C(=O)O)cc2)c(CCC(=O)O)c(C=O)c1O [Compound 28, 4-((3-(2-carboxyethyl)-4-formyl-5-hydroxy-6-methylpyridin-2-yl)diazenyl)benzoic acid]			−1.20±0.45	130			−1.08±0.02	80		48.5 ± 9.5	130 ± 13.6	56.3 ± 8.8	79.8 ± 1.21	
Cc1nc(N=Nc2cc(S(=O)(=O)O)ccc2S(=O)(=O)O)c(CCC(=O)O)c(C=O)c1O [Compound 24, 3-(2-((2,5-Disulfophenyl)diazenyl)-4-formyl-5-hydroxy-6-methylpyridin-3-yl)propanoic acid]			−1.13±0.40	70			−1.18±0.25	105		58.6 ± 4.5	70.5 ± 2.72	40.1 ± 8.4	105 ± 17.5	concentration-dependent inhibitory activity
